Data on three molecules can be found in article PMC10931745 (International Journal of Molecular Sciences, 2024).

The test system of one assay is MCF-7. Briefly: MTT cell viability assay. The format is cell-based, human. The method, then:
(§1) The cell lines used were purchased from American Type Culture Collection (ATCC, Manassas, VA, USA). Human breast cancer cells MCF-7 and MDA-MB-231, human mammary epithelial cell line MCF-10A, and mouse BALB/3T3 embryonic fibroblasts were cultured as already described by some of us. The murine macrophage cell line RAW 264.7 was maintained in Dulbecco’s Modified Eagle’s Medium (DMEM) high glucose (4.5 g/L) supplemented with 10% Fetal Bovine Serum (FBS), 1% L-glutamine, and 100 units/mL of penicillin/streptomycin. The cell cultures were maintained at the temperature of 37 °C in a humidified atmosphere containing 5% CO2.
(§2) The 3-(4,5-dimethylthiazol-2-yl)-2,5-diphenyl-2H-tetrazolium bromide (MTT) assay (Sigma Aldrich (St. Louis, MO, USA)) was carried out to study the in vitro anticancer activities of the complexes, following the previously reported protocol. The cells were incubated for 72 h with different concentrations of the tested compounds (0.1, 1, 10, 25, 50, 100, and 500 µM) and the IC50 values were calculated from the percent (%) of control using the software GraphPad Prism 9 (GraphPad Software, La Jolla, CA, USA).
In general terms: Tetrazolium assays rely on reduction of a dye to a coloured formazan, in cell work by metabolically active cells.

The next assay concerns MDA-MB-231. Briefly: MTT cell viability assay. The format is cell-based, human. The method, then:
as §1, §2

The subject of assay [1] is human mammary epithelial cell line MCF-10A. Briefly: MTT assay, toxicity towards normal cells. The format is cell-based. The note with it: 72 h. The protocol:
as §1, §2

Assay [2] deals with ROS production in BALB/3T3 fibroblasts. The assay can be described thus: Intracellular ROS detection with DCFH2-DA. The format is cell-based, murine. The note with it: 25 µM, 24 h pre-treatment. The protocol:
In vitro detection of intracellular ROS on fibroblasts BALB/3T3 using DCFH2-DA The assay to evaluate the in vitro antioxidant activity was carried out using the murine BALB/3T3 fibroblasts that were plated in a white 96 MW and then treated with the complexes at a concentration of 25 µM for 24 h. Menadione (25 µM) was then added for 15 min to induce ROS production. After treatment, the cells were washed with PBS and treated with 25 μM 2′-7′-dichlorofluorescein diacetate (DCFH2-DA, Sigma-Aldrich, St. Louis, MO, USA), and then they were incubated for 40 min at 37 °C and 5% CO2. The probe DCFH2-DA penetrates cells where it is […] into a non-fluorescent form (DCFH2) by endogenous esterases. In the presence of intracellular ROS, non-fluorescent H2DCF is oxidized to the fluorescent 2′,7′-dichlorofluorescein (DCF). Then, the cells were washed with PBS and the fluorescence was detected using a multiplate reader (λex = 485 nm, λem = 535 nm). Based on the obtained fluorescence values, the ROS production inhibition % (IROS) vs. menadione was calculated using the following formula:(1) IROS vs. Menadione (%)=FMen−FSample/FMen∗100 where FMen represents the mean fluorescence obtained after treatment with menadione alone and Fsample represents the mean fluorescence obtained after the co-treatment with the complexes and menadione.

The nature of assay [3]: ABTS radical scavenging assay. The format is biochemical. The protocol:
The radical scavenging properties of the complexes on a 2,20-azino-bis(3-ethylbenzothiazoline-6-sulfonate) radical cation (ABTS^+) were evaluated as previously described.
All the complexes were used at different concentrations (5, 10, 25, 50, and 100 µg/mL) and the ABTS radical scavenging activity, measured at 730 nm using a microplate reader, was expressed as inhibition percentages (%IABTS) compared tothe control, according to the following expression:(3) IABTS (%)=ABSCTRL−ABSsample/ABSCTRL∗100 where ABSCTRL and ABSsample are the absorbance at 730 nm in the control and in the presence of samples, respectively.
IC50 values were calculated from the %IABTS using GraphPad Prism 9 software (GraphPad Inc., San Diego, CA, USA). Trolox was employed as a positive control, while caffeine and theophylline were reference compounds.

The nature of assay [4]: DPPH radical scavenging assay. The format is biochemical. The method, then: The radical scavenging properties of the complexes on the 1,1-diphenyl-2-picrylhydrazil (DPPH) radical were evaluated as previously described.
All the complexes were used at different concentrations (10, 25, 50, 100, and 200 µg/mL) and the DPPH radical scavenging activity, measured at 517 nm using a microplate reader, was expressed as inhibition percentages (%IDPPH) compared to the initial concentration of DPPH (control) according to the following expression:(2) IDPPH (%)=ABSCTRL−ABSsample/ABSCTRL∗100 where ABSCTRL and ABSsample are the absorbance at 517 nm in the control and in the presence of samples, respectively.
The obtained IDPPH percentages allowed us to calculate the IC50 values using Graph-Pad Prism 9 software (GraphPad Inc., San Diego, CA, USA). Trolox was employed as a positive control, while caffeine and theophylline were reference compounds.
(In general: The DPPH test is a chemical assay of radical scavenging.)

In assay [5] the test system is Escherichia coli (ATCC 25922). The assay can be described thus: MIC/MBC broth dilution. The format is cell-based. The method, then:
(§3) The bacterial strains used for MIC and MBC value determinations expressed as µg/mL by the broth dilution method, according to CLSI guidelines, were the following:
(§4) -4 Gram-negative: Escherichia coli (ATCC® 25922^TM) and Klebsiella pneumoniae (ATCC® 13883^TM);
(§5) Increasing concentrations of the complexes (50, 70, 100, 150, and 200 µg/mL) were incubated with bacteria plated in 96-well microplates at 37 °C overnight as already reported, and then bacterial growth was checked at a wavelength of 600 nm using a Multiskan spectrophotometer (model Multiskan Ex Microplate; Thermo Scientific, Nyon, Switzerland). MIC or MBC values were obtained by comparing cell density with a positive control (bacterial cells grown in LB medium were added with only the vehicle, DMSO). The results were representative of three independent experiments performed in triplicate. Ampicillin, Gentamicin, and Cephalosporin (Sigma Aldrich A9393) were used as the control for strain sensitivity.

For assay [6], the system named is Klebsiella pneumoniae (ATCC 13883). Briefly: MIC/MBC broth dilution. The format is cell-based. The protocol:
as §3, §4, §5
For orientation: Dilution methods test growth across graded concentrations, often in twofold steps.

Assay [7] has as its system Enterococcus faecalis (ATCC 19433). The assay can be described thus: MIC/MBC broth dilution. The format is cell-based. The protocol:
as §3
(§6) -3 Gram-positive: Enterococcus faecalis (ATCC® 19433^TM), Staphylococcus aureus (ATCC® 23235^TM), and Staphylococcus epidermidis (ATCC® 14990™).
as §5

Assay [8] relates to Staphylococcus aureus (ATCC 23235). The assay can be described thus: MIC/MBC broth dilution. The format is cell-based. The protocol:
as §3, §6, §5

Assay [9] deals with Staphylococcus epidermidis (ATCC 14990). The assay can be described thus: MIC/MBC broth dilution. The format is cell-based. The protocol:
as §3, §6, §5

Assay [10] deals with Pseudomonas aeruginosa (ATCC 15442). The assay can be described thus: MIC/MBC broth dilution. The format is cell-based. The method, then: as §3
as §5, with “The results were representative of three independent experiments performed in triplicate.” left out

The subject of assay [11] is Salmonella typhimurium (ATCC 14028). Briefly: MIC/MBC broth dilution. The format is cell-based. The method, then:
as §3
as §5, with “The results were representative of three independent experiments performed in triplicate.” left out

Assay [12] addresses T1, human topoisomerase I (hTopoI) (Homo sapiens, UniProt P11387).
T1 construct: purchased TopoGEN, Port Orange, FL, USA
T1 sequence (P11387 1-765): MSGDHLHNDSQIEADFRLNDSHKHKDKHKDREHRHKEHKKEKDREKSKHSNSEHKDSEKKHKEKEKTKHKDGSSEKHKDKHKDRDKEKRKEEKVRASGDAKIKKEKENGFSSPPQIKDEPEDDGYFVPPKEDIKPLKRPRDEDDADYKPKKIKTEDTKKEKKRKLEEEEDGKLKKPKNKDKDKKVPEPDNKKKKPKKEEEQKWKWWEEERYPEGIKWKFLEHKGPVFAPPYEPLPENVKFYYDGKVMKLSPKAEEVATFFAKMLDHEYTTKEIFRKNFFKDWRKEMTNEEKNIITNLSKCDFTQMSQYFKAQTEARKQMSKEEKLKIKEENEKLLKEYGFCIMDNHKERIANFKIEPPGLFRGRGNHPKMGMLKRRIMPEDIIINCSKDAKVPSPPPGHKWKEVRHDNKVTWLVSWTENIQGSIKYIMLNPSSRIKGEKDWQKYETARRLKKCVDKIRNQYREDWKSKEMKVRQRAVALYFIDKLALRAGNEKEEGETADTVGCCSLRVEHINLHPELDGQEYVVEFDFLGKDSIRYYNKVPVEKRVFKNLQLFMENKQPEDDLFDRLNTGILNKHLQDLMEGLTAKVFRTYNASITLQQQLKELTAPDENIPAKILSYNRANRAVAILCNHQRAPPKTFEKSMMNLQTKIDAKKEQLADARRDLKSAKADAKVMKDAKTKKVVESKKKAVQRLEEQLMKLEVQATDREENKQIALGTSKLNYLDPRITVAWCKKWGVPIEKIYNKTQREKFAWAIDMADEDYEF
Briefly: Human topoisomerase I relaxation assay. The note with it: 1 µM, supercoiled pHOT1 DNA. The format is biochemical. The protocol: The human topoisomerase I relaxation assay was performed as reported in [86]. Shortly, the recombinant human topo I (TopoGEN, Port Orange, FL, USA) was incubated with the super-coiled pHOT1, in the presence or not of the tested compounds, at the indicated concentrations. The reaction products were then allowed to separate through the agarose gel electrophoresis, and ethidium bromide-stained DNA was visualized under UV light.

In general, IC50 refers to the concentration that inhibits the measured activity by half. Low values mean greater potency, high ones weaker potency. In the case of “1,3,7-Trimethylxanthin-9-[(2-hydroxy-2-phenyl)ethyl-8-ylidene]Au(I) Acetate [AuL1OAc]”, the IC50 in the assay with MCF-7 (72 h) was greater than 100 µM; in the assay on MDA-MB-231 (72 h), greater than 100 µM; in assay [1], greater than 100 µM; in assay [3], greater than 500 µM; in assay [4], greater than 500 µM. The “ROS level reduction vs. menadione” value in assay [2] is roughly 54%. Besides, the “M.I.C. E. coli” value in [5] was greater than 200 µg/mL. Besides, the “M.I.C. K. pneumoniae” value in assay [6] is on record as greater than 200 µg/mL. Besides, in assay [7], the “M.I.C. E. faecalis” value is given as greater than 200 µg/mL. The “M.I.C. S. aureus” value in assay [8] is recorded as greater than 200 µg/mL. Also, the “M.I.C. S. epidermidis” value in assay [9] was greater than 200 µg/mL. In addition, the “M.I.C. P. aeruginosa” value in [10] was greater than 200 µg/mL. In [11], the “M.I.C. S. typhimurium” value is greater than 200 µg/mL.

The molecule `CC(=O)[O][Ag-][c]1n(C)c2c(c(=O)n(C)c(=O)n2C)[n+]1CC(O)c1ccccc1` (racemic) [AgL1OAc, 1,3,7-Trimethylxanthin-9-[(2-hydroxy-2-phenyl)ethyl-8-ylidene]Ag(I) Acetate] had an IC50 in the assay with MCF-7 (72 h) of 39.6 ± 0.8 µM. In the assay on MDA-MB-231 (72 h), this molecule showed a 50% inhibitory concentration (IC50) of 32.3 ± 0.9 µM. The IC50 in assay [1] is greater than 100 µM. Moreover, in assay [2], the “ROS level reduction vs. menadione” value was “about 61%”. This molecule also yielded an IC50 in assay [3] of 149.2 ± 0.7 µM. This molecule registered an IC50 in [4] greater than 500 µM. Moreover, in [5], the “M.B.C. E. coli” value was greater than 150 µg/mL. Further, in assay [6], the “M.B.C. K. pneumoniae” value was greater than 150 µg/mL and the “M.I.C. K. pneumoniae” value is given as 125 µg/mL. Also, in [7], the “M.B.C. E. faecalis” value is given as greater than 200 µg/mL and the “M.I.C. E. faecalis” value is 150 µg/mL. Further, in [8], the “M.B.C. S. aureus” value was greater than 150 µg/mL and the “M.I.C. S. aureus” value is given as 125 µg/mL. In addition, in assay [9], the “M.B.C. S. epidermidis” value is greater than 150 µg/mL and the “M.I.C. S. epidermidis” value came out at 125 µg/mL. Besides, in [10], the “M.B.C. P. aeruginosa” value was greater than 150 µg/mL and the “M.I.C. P. aeruginosa” value is 125 µg/mL. In addition, in assay [11], the “M.B.C. S. typhimurium” value is reported as greater than 200 µg/mL and the “M.I.C. S. typhimurium” value is 150 µg/mL.

With `Cn1c(=O)c2c(ncn2C)n(C)c1=O` [Caffeine, 1,3,7-trimethylxanthine, reference compound], the IC50 was greater than 500 µM in the assay on MCF-7 (Homo sapiens, MCF7, 72 h); greater than 500 µM in the assay on MDA-MB-231 (Homo sapiens, MDA-MB-231, 72 h); greater than 500 µM in assay [1] (Homo sapiens, MCF-10A); greater than 500 µM in assay [3]; greater than 500 µM in [4]. In assay [12], the “Inhibition of hTopo I supercoil relaxing activity” value is “failed”. Also, the “IC50 ABTS scavenging” value in [3] was “did not show any scavenging capacity”. The “IC50 DPPH scavenging” value in assay [4] was “did not show any scavenging capacity”. Moreover, the “M.I.C. E. coli” value in [5] is recorded as greater than 200 µg/mL. Further, the MIC in assay [5] (Escherichia coli, ATCC25922) was greater than 200 µg/mL; in [6] (Klebsiella pneumoniae, ATCC13883, read-out: M.I.C. K. pneumoniae) it was greater than 200 µg/mL; in [7] (Enterococcus faecalis, ATCC19433, read-out: M.I.C. E. faecalis), greater than 200 µg/mL; in assay [8] (Staphylococcus aureus, ATCC23235, read-out: M.I.C. S. aureus), greater than 200 µg/mL; in assay [9] (Staphylococcus epidermidis, ATCC14990, read-out: M.I.C. S. epidermidis), greater than 200 µg/mL; in assay [10] (Pseudomonas aeruginosa, ATCC15442, read-out: M.I.C. P. aeruginosa), greater than 200 µg/mL. For the same molecule, the “M.I.C. K. pneumoniae” value in assay [6] is given as greater than 200 µg/mL. For the same molecule, in [7], the “M.I.C. E. faecalis” value is listed as greater than 200 µg/mL. The “M.I.C. S. aureus” value in assay [8] was greater than 200 µg/mL. Further, the “M.I.C. S. epidermidis” value in assay [9] was greater than 200 µg/mL. In addition, the “M.I.C. P. aeruginosa” value in assay [10] is greater than 200 µg/mL.
